Results: patent US9676820B2, “Method for inhibiting proliferation of high LIX1L-expressing tumor cell, and tumor cell proliferation-inhibiting peptide” (National University Corporation Hamamatsu University School …, priority 2013, dated 2017)
Entries after “also recorded” stand apart in the source; their conditions may differ.

How the values were obtained:
Assay type in all cases: cell-based
RPMI8226 strain = test: MTT assay, RPMI8226 strain; conditions: peptide 0 μM to 100 μM, 72 hours
Method: (§1) Specifically, first, cells plated in a 96-well microplate such that the density thereof became 5×10^3 cells/well were cultured for one night in a culture solution having the same composition as those in the reference examples. Thereafter, the culture solution was exchanged with 100 μL of a culture solution of which the concentration of peptides is 0 μM to 100 μM for culturing for 72 hours. After the culturing, an MTT-containing PBS solution was added to the culture solution, and the mixture was incubated for 4 hours. Then, formazan which was generated by putting 100 μL of isopropanol (containing 34 (v/v) % of hydrochloric acid) into each of the wells was dissolved. The absorbance of each of the wells of the microplate at 570 nm was measured using a microplate reader. As controls, culturing was performed in the same manner except that no peptide was added to the strains, an MTT assay was performed thereon, and the absorbance at 570 nm was measured (untreated).
Specifically, the cells were cultured for 72 hours similarly to Example 2 except that a peptide to be added to a cell strain was set to peptide 1, 3, or 4, or a control peptide, an MTT assay was performed thereon, and the absorbance at 570 nm was measured.

293 FLG = test: MTT assay, 293 FLG cells
Method: as §1, with “Thereafter, the culture solution was exchanged with 100 μL of a culture solution of which the concentration of peptides is 0 μM to 100 μM for culturing for 72 hours.” left out
(§2) In the method for measuring the viable cell counts, cells were cultured for 3 days similarly to Example 1 except that a 25 μM (10 μM for an HL-60 strain, a K562 strain, and a U937 strain) culture solution containing a control peptide or a peptide 1 was used, and the viable cell counts were measured. As a comparison, culturing was performed similarly to the above using a culture solution containing no peptide, and the viable cell counts were measured (untreated).
(§3) In addition, in the method for performing an MTT assay, cells were cultured for 72 hours similarly to Example 2 except that a peptide to be added to a strain was set to a control peptide or a peptide 1 at 25 μM (10 μM for an HL-60 strain, a K562 strain, and a U937 strain), an MTT assay was performed thereon, and the absorbance at 570 nm was measured. As a comparison, culturing was performed similarly to the above using a culture solution containing no peptide, and the MTT assay was performed thereon (untreated).
(§4) Specifically, the cells were cultured for 72 hours similarly to Example 2 except that a peptide to be added to a cell was set to a peptide 1, 2, 5, or 6, MTT assays were performed thereon, and the absorbance at 570 nm was measured. As a comparison, culturing was performed similarly to the above using a culture solution containing no peptide, and the MTT assay was performed thereon (untreated).
(§5) Specifically, the cells were cultured for 72 hours similarly to Example 2 except that peptides to be added to cell strains were set to peptides 7 to 14, MTT assays were performed thereon, and the absorbance at 570 nm was measured. […]
(§6) Specifically, the cells were cultured for 72 hours similarly to Example 2 except that a peptide to be added to a cell strain was set to a peptide 15 or 16, an MTT assay was performed thereon, and the absorbance at 570 nm was measured. […]

NUGC-4 strain = test: MTT assay, NUGC-4 strain
Method: as §1, with “Thereafter, the culture solution was exchanged with 100 μL of a culture solution of which the concentration of peptides is 0 μM to 100 μM for culturing for 72 hours.” left out
as §2, §3, §4, §5, §6

136th tyrosine of LIX1L = target: T1, 136th tyrosine of LIX1L (Homo sapiens, UniProt Q8IVB5); test: Tyrosine phosphorylation of LIX1L by immunoprecipitation and Western blotting in 293 FLG/LIX1L cells; conditions: cultured 14 days with peptide
T1 construct: expressed in transfected cells
Method: First, a cell strain (293 FLG) in which only FLAG was forcibly expressed, a cell strain (293 FLG/LIX1L) in which a LIX1L protein with a FLAG tag was forcibly expressed, and a cell strain (293 FLG/LIX1L/PY136) in which a LIX1L protein with a FLAG tag for adding a peptide thereto was forcibly expressed were prepared through the same method as Reference Example 5, and were cultured and proliferated.
Next, the 293 FLG/LIX1L/PY136 cells were cultured for 14 days in a culture solution containing a peptide 1 through the same method as that in Example 3. The 293 FLG cells and the 293 FLG/LIX1L cells were cultured for 14 days in the same manner as above using a culture solution containing no peptide 1.
Next, the 293 FLG cells, the 293 FLG/LIX1L cells, and the 293 FLG/LIX1L/PY136 cells were respectively cultured in 10% FCS-containing DMEM culture media to which Hygromycin B at […] was added, for 14 days. Then, the cultured cells were separated into nuclear fractions and cytoplasm fractions using Nuclear/Cytosol Fractionation Kit (manufactured by BioVison, Inc.). Immunoprecipitation was performed on both the obtained fractions using an anti-FLAG antibody (manufactured by Sigma-Aldorich Co. LLC.) and an agarose-binding protein A (manufactured by Sigma-Aldorich Co. LLC.), protein separation was performed thereon through 12% SDS-PAGE, and the fractions were transferred to a film. […]

293 FLG/LIX1L = test: Colony formation assay (agarose), 293 FLG/LIX1L cells (Example 9); conditions: 293 FLG/LIX1L/PY136 cells, 14 days
Method: In the colony formation assay, the 293 FLG cells, the 293 FLG/LIX1L cells, and the 293 FLG/LIX1L/PY136 cells were respectively mixed in 10% FCS-containing DMEM culture media, to which 0.4% agarose was added, and the mixtures were gently placed on 0.6% agarose- and 10% FCS-containing DMEM culture media for culturing for 14 days. Thereafter, the influence of LIX1L and PY136 on cell proliferation was evaluated by counting the number of colonies in each well using an optical microscope (manufactured by Zeiss).

[1] = 72 hours, peptide concentrations up to 250 μM
[2] = peptide 25 μM, 3 days / 72 hours

T1 sequence (Q8IVB5 with tags, fused parts or gaps): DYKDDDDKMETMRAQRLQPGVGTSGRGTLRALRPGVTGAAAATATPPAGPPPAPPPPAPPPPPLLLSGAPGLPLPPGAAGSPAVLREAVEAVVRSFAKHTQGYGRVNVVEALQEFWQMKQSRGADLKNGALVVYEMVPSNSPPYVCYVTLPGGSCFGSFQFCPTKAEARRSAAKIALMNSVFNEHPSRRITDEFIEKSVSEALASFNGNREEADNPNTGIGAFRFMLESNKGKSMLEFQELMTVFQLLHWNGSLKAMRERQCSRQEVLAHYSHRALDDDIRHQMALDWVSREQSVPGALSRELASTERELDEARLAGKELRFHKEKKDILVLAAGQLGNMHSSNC

Compound: CC(C)[C@H](NC(=O)[C@H](Cc1ccc(O)cc1)NC(=O)[C@H](CS)NC(=O)[C@@H](NC(=O)[C@H](Cc1ccc(O)cc1)NC(=O)[C@@H]1CCCN1C(=O)[C@@H]1CCCN1C(=O)[C@H](CO)NC(=O)[C@H](CC(N)=O)NC(=O)[C@H](CO)NC(=O)[C@@H]1CCCN1C(=O)CCCCCNC(=O)[C@H](CCCNC(=N)N)NC(=O)[C@H](CCCNC(=N)N)NC(=O)[C@H](CCCNC(=N)N)NC(=O)[C@H](CCC(N)=O)NC(=O)[C@H](CCCNC(=N)N)NC(=O)[C@H](CCCNC(=N)N)NC(=O)[C@H](CCCCN)NC(=O)[C@H](CCCCN)NC(=O)[C@H](CCCNC(=N)N)NC(=O)CNC(=O)[C@@H](N)Cc1ccc(O)cc1)C(C)C)C(N)=O [peptide 1, YGRKKRRQRRR-X-PSNSPPYVCYV-NH2]
- absorbance at 570 nm (MTT assay), influence on cell proliferation (RPMI8226 strain): no effect of inhibiting the cell proliferation; also recorded: not inhibited
- cell proliferation (MTT assay, absorbance at 570 nm) (293 FLG; [1]): inhibited
- cell proliferation (viable cell counts and MTT assay) (293 FLG; [2]): not inhibited
- cell proliferation (MTT assay, absorbance at 570 nm) (NUGC-4 strain; [1]): inhibited
- cell proliferation (viable cell counts and MTT assay) (NUGC-4 strain; [2]): not inhibited
- phosphorylation of the 136th tyrosine of LIX1L (136th tyrosine of LIX1L; cytoplasm fraction of 293 FLG/LIX1L/PY136 cell): significantly inhibited
- phosphorylation of the 136th tyrosine of LIX1L (136th tyrosine of LIX1L; nuclear fraction of 293 FLG/LIX1L/PY136 cell): slightly inhibited
- formation of colonies (colony formation assay) (293 FLG/LIX1L): significantly inhibited
